Assay results: ChEMBL document CHEMBL1221351, “Styrylpyrones from the medicinal fungus Phellinus baumii and their antioxidant properties” (Bioorg Med Chem Lett, 2010)
The source made the active and inactive calls. The calls are words filed in the database; no cut-off is given here.

Assays:
Format in all cases: functional
[1] = tested on: Radical scavenging activity; assay: Antioxidant activity assessed as DPPH radical scavenging activity
[2] = Antioxidant activity assessed as inhibition of fenton reaction-induced pBR322 DNA single strand break by CAS assay
[3] = Antioxidant activity assessed as inhibition of fenton reaction-induced pBR322 DNA single strand break by agarose gel electrophoresis
[4] = Antioxidant activity assessed as ABTS radical scavenging activity

SMILES | IC50 [1] [µM] | Activity [2] | Activity [3] | IC50 [4] [µM]
CC1=CC(=O)[C@H](c2c(O)cc(/C=C/c3ccc(O)c(O)c3)oc2=O)[C@@H](c2ccc(O)c(O)c2)O1 [DAVALLIALACTONE] | 1.2 | Active | Active | 2.8
O=c1cc(O)cc(/C=C/c2ccc(O)c(O)c2)o1 | – | Active | inactive | –
O=c1cc(O)cc([C@H]2c3c(cc(/C=C/c4ccc(O)c(O)c4)oc3=O)O[C@@H]2c2ccc(O)c(O)c2)o1 | – | Active | Active | –
O=c1oc2cc(/C=C/c3ccc(O)c(O)c3)oc(=O)c2c2cc(O)c(O)cc12 | – | Active | Active | –
CC1=CC(=O)C2(O1)c1c(cc(/C=C/c3ccc(O)c(O)c3)oc1=O)OC2c1ccc(O)c(O)c1 (stereo not drawn) | – | Active | Active | –
CC(=O)/C=C(O)/C(=C\c1ccc(O)c(O)c1)c1c(O)cc(/C=C/c2ccc(O)c(O)c2)oc1=O | – | Active | Active | –
COC(=O)CC1=CC(=O)[C@H](c2c(O)cc(/C=C/c3ccc(O)c(O)c3)oc2=O)[C@@H](c2ccc(O)c(O)c2)O1 [BAUMIN] | 7.5 | Active | Active | 11.7
